Measurements published in US10669284B2, “Fused thiazolopyrimidine derivatives as MNKS inhibitors” (LIFEARC, priority 2015, dated 2020).

Legend:
[1] = biological target: NTRK1 (Homo sapiens, UniProt P04629); test: Kinase selectivity screen NTRK1; settings: read-out: % inhibition of NTRK1
[2] = biological target: FGFR3 (Homo sapiens, UniProt P22607); test: Kinase selectivity screen FGFR3; settings: read-out: % inhibition of FGFR3
[3] = biological target: T1, NUAK1 (Homo sapiens, UniProt O60285); test: Kinase selectivity screen NUAK1; settings: read-out: % inhibition of NUAK1
T1 sequence (O60285 1-661): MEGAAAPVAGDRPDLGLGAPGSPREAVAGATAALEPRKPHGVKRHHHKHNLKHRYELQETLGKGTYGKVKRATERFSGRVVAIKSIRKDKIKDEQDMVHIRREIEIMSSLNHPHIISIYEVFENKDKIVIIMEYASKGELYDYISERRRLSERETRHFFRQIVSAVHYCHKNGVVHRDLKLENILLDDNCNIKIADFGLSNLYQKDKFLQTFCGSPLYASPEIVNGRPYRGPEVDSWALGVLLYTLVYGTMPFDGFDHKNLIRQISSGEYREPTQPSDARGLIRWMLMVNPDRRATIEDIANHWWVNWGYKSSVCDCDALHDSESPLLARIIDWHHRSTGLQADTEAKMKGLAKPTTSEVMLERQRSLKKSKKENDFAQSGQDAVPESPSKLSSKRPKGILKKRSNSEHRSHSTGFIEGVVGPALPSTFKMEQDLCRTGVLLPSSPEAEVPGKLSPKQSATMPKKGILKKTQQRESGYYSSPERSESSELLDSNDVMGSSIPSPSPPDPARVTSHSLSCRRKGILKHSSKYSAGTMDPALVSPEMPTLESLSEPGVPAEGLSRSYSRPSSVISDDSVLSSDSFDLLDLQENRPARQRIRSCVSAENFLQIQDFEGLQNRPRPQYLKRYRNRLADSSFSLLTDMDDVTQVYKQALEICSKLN

[4] = biological target: PRKCA (Homo sapiens, UniProt P17252); test: Kinase selectivity screen PRKCA; settings: read-out: % inhibition of PRKCA
[5] = biological target: T2, Full-length human MNK2 (Homo sapiens, UniProt Q9HBH9, T379D); test: MNK2 biochemical IC50 assay (Caliper Mobility Shift Assay)
T2 construct: GST (N); purchased Carna Biosciences 02-146; host or cells: baculovirus expression system
T2 sequence (Q9HBH9 whole entry T379D): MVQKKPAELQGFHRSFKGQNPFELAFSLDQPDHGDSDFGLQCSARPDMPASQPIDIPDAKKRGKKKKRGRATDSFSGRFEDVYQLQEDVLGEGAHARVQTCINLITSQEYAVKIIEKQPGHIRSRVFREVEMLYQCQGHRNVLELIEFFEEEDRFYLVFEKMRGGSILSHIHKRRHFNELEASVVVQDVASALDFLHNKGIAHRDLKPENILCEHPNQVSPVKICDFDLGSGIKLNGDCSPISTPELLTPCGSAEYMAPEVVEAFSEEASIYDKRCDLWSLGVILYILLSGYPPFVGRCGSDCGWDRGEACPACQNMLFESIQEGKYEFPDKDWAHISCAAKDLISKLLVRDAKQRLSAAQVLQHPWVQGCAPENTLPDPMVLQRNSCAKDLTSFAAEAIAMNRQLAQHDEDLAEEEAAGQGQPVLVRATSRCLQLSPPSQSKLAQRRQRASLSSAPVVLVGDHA

[6] = biological target: T3, ACVR1B (Homo sapiens, UniProt P36896); test: Kinase selectivity screen ACVR1B; settings: read-out: % inhibition of ACVR1B
T3 sequence (P36896 24-505): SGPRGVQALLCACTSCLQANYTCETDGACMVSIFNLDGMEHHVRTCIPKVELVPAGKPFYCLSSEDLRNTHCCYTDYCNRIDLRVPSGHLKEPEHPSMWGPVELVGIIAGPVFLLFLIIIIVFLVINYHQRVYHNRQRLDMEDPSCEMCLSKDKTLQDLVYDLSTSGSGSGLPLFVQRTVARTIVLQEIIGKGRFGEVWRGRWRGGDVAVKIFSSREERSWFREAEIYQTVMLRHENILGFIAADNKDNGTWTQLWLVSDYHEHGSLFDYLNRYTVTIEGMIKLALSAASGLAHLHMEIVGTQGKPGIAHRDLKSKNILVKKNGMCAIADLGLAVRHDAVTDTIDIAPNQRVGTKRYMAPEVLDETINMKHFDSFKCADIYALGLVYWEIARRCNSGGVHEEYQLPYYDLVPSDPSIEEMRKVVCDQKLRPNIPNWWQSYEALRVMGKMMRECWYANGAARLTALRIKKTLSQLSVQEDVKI

[7] = biological target: T4, MAP3K7 (Homo sapiens, UniProt O43318); test: Kinase selectivity screen MAP3K7; settings: read-out: % inhibition of MAP3K7
T4 sequence (O43318 1-303 limits assumed): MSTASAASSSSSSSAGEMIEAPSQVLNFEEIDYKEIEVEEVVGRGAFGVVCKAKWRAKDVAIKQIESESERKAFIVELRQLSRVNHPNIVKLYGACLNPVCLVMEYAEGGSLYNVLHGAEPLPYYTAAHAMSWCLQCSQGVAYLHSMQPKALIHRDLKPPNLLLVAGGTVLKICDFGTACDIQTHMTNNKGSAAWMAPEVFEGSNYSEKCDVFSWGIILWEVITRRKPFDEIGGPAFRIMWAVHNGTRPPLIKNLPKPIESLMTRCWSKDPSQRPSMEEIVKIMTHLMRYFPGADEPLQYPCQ

[8] = biological target: KIT (Homo sapiens, UniProt P10721); test: Kinase selectivity screen KIT; settings: read-out: % inhibition of KIT
KIT, sequence (P10721 26-976, species assumed): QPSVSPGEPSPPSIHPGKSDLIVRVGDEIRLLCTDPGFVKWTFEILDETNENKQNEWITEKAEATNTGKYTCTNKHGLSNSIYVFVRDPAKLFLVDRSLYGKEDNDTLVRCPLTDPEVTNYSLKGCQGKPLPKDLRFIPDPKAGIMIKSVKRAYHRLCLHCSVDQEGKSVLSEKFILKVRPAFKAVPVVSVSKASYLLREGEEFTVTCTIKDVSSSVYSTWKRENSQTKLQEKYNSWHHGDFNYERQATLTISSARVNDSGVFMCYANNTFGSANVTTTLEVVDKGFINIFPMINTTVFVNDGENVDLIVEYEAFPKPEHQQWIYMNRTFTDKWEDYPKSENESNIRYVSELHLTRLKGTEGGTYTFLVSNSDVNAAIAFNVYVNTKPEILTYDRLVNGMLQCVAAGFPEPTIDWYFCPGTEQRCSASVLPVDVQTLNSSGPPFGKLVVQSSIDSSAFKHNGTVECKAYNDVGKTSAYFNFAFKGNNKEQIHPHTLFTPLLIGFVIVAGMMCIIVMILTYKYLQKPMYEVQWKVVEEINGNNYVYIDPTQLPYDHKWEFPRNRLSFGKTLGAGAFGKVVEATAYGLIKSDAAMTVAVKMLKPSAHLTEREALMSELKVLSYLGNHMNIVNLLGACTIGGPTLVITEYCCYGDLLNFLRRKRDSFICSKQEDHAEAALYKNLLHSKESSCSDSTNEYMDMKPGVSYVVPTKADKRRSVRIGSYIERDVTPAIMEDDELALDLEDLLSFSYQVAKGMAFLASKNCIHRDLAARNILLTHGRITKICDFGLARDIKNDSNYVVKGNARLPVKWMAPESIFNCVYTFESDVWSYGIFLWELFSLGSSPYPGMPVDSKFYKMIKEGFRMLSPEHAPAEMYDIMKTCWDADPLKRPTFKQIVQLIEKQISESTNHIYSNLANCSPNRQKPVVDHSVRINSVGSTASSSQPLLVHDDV

NTRK1, sequence (P04629 33-796, species assumed): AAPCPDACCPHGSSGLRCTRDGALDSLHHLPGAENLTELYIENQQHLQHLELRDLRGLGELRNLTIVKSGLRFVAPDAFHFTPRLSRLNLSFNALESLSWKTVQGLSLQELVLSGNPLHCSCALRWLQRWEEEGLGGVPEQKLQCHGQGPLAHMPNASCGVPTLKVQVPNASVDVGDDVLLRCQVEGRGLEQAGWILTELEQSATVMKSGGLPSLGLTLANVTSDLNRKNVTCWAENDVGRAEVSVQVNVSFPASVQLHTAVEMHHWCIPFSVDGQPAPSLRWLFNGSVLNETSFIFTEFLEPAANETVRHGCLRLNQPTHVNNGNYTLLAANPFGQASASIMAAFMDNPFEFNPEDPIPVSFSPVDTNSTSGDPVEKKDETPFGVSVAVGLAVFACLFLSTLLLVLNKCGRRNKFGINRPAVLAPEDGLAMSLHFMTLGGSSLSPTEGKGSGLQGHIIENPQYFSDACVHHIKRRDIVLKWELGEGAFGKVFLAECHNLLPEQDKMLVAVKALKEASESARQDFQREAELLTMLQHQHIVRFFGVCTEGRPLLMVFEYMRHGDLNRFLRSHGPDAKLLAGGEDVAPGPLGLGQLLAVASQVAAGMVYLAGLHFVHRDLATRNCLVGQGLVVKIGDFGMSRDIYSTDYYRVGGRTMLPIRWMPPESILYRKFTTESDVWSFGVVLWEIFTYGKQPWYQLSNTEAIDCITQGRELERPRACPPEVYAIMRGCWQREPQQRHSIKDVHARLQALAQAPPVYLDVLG
FGFR3, sequence (P22607 23-806, species assumed): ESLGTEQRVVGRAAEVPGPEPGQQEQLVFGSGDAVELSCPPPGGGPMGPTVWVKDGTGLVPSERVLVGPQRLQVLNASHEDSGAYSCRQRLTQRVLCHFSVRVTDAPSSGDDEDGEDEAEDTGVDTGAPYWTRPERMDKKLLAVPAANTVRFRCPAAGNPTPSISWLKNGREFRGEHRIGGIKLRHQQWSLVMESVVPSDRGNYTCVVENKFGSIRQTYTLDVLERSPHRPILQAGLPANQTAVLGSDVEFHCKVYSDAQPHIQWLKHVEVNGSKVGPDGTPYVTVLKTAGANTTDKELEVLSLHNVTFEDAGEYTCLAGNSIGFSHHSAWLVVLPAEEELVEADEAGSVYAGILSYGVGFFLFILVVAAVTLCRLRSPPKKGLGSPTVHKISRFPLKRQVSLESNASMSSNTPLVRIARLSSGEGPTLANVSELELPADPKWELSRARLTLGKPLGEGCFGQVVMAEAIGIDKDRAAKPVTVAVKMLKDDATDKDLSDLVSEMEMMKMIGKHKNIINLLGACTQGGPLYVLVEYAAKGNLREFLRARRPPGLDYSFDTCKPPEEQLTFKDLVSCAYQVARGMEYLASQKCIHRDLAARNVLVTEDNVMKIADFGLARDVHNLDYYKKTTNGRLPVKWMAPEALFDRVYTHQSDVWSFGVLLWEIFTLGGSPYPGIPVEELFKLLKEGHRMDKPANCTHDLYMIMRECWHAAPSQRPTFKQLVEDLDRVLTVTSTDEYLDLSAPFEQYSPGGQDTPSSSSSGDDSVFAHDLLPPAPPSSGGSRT

Row | SMILES | inhibition at 1 µM [1] [%] | inhibition at 1 µM [2] [%] | inhibition at 1 µM [3] [%] | inhibition at 1 µM [4] [%] | IC50 [5] [nM] | inhibition at 1 µM [6] [%] | inhibition at 1 µM [7] [%] | inhibition at 1 µM [8] [%]
1 | CC(C)Oc1cc(F)ccc1Nc1ncnc2sc(C(=O)NCC3CCNCC3)nc12 [Example 10, 7-(4-fluoro-2-isopropoxy-anilino)-N-(4-piperidylmethyl)thiazolo[5,4-d]pyrimidine-2-carboxamide] | 10 | 0 | 15 | 8 | 50.1 | 6 | 20 | 0
2 | O=C(NCC1CCNCC1)c1nc2c(N3CCc4cc(F)ccc43)ncnc2s1 [Example 58, 7-(5-fluoroindolin-1-yl)-N-(4-piperidylmethyl)thiazolo[5,4-d]pyrimidine-2-carboxamide] | 0 | 0 | 33 | 0 | 3.98 | 0 | 14 | 7
3 | CN(C)CCCNC(=O)c1nc2c(N3CCc4cc(F)ccc43)ncnc2s1 [Example 64, N-[3-(dimethylamino)propyl]-7-(5-fluoroindolin-1-yl)thiazolo[5,4-d]pyrimidine-2-carboxamide] | 5 | 3 | 43 | 0 | 2 | 15 | 0 | 0
